Patent US20260356830A1, “COMPOUNDS FOR MODULATING RET PROTEIN” (Bristol-Myers Squibb Company, priority 2022, published 2026)

Biological target: T1, CCDC6-RET (Homo sapiens, UniProt P07949+Q16204+Q96SW2)
T1 construct: CCDC6 (natural N-terminal fusion partner, UniProt Q16204); endogenous in cells; host or cells: TPC-1 (parental, papillary thyroid carcinoma)
Experiment: Cellular RET degradation, AlphaLISA, TPC-1 cell line
Assay type: cell-based
Conditions: for Dmax: TPC1, human, 24 h, read-out: Cell Density TPC-1/CCDC6-RET Ymax %; for DC50: read-out: Cell Density TPC-1/CCDC6-RET DC50, half-maximal degradation concentration, TPC-1 (CCDC6-RET), 24 hrs
How it was run: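 Luminescent AlphaLISA read of RET abundance in lysates after 24 h compound exposure (37 °C, 2% FBS DMEM) of CCDC6-RET-bearing TPC-1 cells. % degradation relative to DMSO (high) and media (low) controls, fitted to 4-parameter logistic curve for DC50 and Ymax.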

T1 sequence (Q16204+P07949 fused): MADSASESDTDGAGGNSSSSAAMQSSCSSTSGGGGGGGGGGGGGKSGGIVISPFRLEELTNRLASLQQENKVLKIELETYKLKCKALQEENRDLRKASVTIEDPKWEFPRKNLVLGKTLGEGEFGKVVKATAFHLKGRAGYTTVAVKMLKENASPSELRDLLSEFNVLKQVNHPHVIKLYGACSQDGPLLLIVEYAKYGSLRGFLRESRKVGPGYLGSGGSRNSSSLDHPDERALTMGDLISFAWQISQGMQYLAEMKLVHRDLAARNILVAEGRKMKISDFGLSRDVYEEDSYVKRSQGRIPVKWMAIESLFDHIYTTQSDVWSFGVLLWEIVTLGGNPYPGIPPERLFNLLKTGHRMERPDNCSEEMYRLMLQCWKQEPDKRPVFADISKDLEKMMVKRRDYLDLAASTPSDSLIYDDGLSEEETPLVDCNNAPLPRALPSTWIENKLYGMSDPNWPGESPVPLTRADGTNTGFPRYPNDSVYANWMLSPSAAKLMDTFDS
T1 sequence (Q96SW2 whole entry, the tested form may be a part): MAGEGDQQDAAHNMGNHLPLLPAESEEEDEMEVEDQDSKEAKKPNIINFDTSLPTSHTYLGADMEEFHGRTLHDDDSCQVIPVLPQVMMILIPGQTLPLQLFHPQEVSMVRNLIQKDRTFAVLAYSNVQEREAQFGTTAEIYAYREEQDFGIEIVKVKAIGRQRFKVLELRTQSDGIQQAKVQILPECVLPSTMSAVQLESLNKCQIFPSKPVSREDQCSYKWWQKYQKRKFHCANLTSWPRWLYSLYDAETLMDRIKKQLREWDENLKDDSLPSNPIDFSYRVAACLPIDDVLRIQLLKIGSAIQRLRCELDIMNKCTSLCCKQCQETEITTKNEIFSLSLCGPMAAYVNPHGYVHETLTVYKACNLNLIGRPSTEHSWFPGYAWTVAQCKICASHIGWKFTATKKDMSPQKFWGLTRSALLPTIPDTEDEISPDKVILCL
T1 sequence (Q16531 whole entry partner, the tested form may be a part): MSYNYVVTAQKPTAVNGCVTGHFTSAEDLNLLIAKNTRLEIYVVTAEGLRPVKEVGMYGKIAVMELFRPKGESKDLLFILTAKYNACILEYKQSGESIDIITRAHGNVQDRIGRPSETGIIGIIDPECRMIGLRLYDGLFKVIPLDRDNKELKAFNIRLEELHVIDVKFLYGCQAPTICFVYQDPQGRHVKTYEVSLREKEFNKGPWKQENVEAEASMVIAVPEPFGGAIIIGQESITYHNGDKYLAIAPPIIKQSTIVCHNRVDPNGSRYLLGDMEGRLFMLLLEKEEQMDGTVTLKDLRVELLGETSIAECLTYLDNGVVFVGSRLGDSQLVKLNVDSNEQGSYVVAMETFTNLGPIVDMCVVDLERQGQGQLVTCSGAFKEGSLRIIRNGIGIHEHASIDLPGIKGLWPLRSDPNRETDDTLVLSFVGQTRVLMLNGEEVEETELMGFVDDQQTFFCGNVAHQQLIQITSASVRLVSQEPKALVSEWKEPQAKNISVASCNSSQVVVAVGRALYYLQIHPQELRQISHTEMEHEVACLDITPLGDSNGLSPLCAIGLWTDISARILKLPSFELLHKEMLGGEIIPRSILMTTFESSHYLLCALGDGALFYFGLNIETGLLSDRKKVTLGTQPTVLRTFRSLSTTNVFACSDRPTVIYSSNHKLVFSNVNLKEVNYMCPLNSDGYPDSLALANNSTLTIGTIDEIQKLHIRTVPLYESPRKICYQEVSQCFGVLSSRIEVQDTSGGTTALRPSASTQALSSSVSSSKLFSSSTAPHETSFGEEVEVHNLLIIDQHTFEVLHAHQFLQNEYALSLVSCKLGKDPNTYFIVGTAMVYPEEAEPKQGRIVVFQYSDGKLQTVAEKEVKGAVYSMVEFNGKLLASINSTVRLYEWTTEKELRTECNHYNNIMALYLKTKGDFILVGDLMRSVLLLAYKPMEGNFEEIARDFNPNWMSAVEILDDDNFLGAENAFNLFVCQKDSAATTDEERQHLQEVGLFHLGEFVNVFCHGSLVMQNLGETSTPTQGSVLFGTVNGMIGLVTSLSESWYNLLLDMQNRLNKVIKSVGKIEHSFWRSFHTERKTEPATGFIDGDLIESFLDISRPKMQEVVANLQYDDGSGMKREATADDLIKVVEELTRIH

Dmax [%]	DC50 [nM]	SMILES
60 to 90	2 to 10	CCOc1cc(-c2ccc(N3CCC(COCC(=O)NCCCCN4CCN(c5ccc6c(c5)CN(C5CCC(=O)NC5=O)C6=O)CC4)(NC(=O)c4cc(F)ccc4F)CC3)nc2)c2c(C#N)cnn2c1 (centres unmarked) [Example 31, N-[1-[5-(3-cyano-6-ethoxy-pyrazolo[1,5-a]pyridin-4-yl)-2-pyridyl]-4-[[2-[4-[4-[2-(2,6-dioxo-3-piperidyl)-1-oxo-isoindolin-5-yl]piperazin-1-yl]butylamino]-2-oxo-ethoxy]methyl]-4-piperidyl]-2,5-difluoro-benzamide]
60 to 90	100 to 2000	CCOc1cc(-c2ccc(N3CCC(CN(C(=O)CCCCN4CCC(c5ccc6c(c5)C(=O)N(C5CCC(=O)NC5=O)C6)CC4)C(C)C)(NC(=O)c4cc(F)ccc4F)CC3)nc2)c2c(C#N)cnn2c1 (centres unmarked) [Example 170, N-[1-(5-{3-cyano-6-ethoxypyrazolo[1,5-a]pyridin-4-yl}pyridin-2-yl)-4-[(5-{4-[2-(2,6-dioxopiperidin-3-yl)-3-oxo-2,3-dihydro-1H-isoindol-5-yl]piperidin-1-yl}-N-(propan-2-yl)pentanamido)methyl]piperidin-4-yl]-2,5-difluorobenzamide]
> 90	2 to 10	CCOc1cc(-c2ccc(N3CCC(CN(C(=O)CCCCCCN4CCC(c5ccc6c(c5)C(=O)N(C5CCC(=O)NC5=O)C6)CC4)C(C)C)(NC(=O)c4cc(F)ccc4F)CC3)nc2)c2c(C#N)cnn2c1 (centres unmarked) [Example 171, N-[1-(5-{3-cyano-6-ethoxypyrazolo[1,5-a]pyridin-4-yl}pyridin-2-yl)-4-[(7-{4-[2-(2,6-dioxopiperidin-3-yl)-3-oxo-2,3-dihydro-1H-isoindol-5-yl]piperidin-1-yl}-N-(propan-2-yl)heptanamido)methyl]piperidin-4-yl]-2,5-difluorobenzamide]
> 90	2 to 10	CCOc1cc(-c2ccc(N3CCC(NC(=O)c4cc(F)ccc4F)(C(=O)NCCCCCCCCCCNc4ccc5c(N6CCC(=O)NC6=O)nn(C)c5c4)CC3)nc2)c2c(C#N)cnn2c1 [Example 153, 1-(5-{3-cyano-6-ethoxypyrazolo[1,5-a]pyridin-4-yl}pyridin-2-yl)-4-(2,5-difluorobenzamido)-N-(10-{[3-(2,4-dioxo-1,3-diazinan-1-yl)-1-methyl-1H-indazol-6-yl]amino}decyl)piperidine-4-carboxamide]
> 90	2 to 10	CCOc1cc(-c2ccc(N3CCC(NC(=O)c4cc(F)ccc4F)(C(=O)NCCCCCCN4CCN(c5ccc6c(c5)C(=O)N(C5CCC(=O)NC5=O)C6)CC4)CC3)nc2)c2c(C#N)cnn2c1 (centres unmarked) [Example 160, 1-(5-{3-cyano-6-ethoxypyrazolo[1,5-a]pyridin-4-yl}pyridin-2-yl)-4-(2,5-difluorobenzamido)-N-(6-{4-[2-(2,6-dioxopiperidin-3-yl)-3-oxo-2,3-dihydro-1H-isoindol-5-yl]piperazin-1-yl}hexyl)piperidine-4-carboxamide]
> 90	2 to 10	CCOc1cc(-c2ccc(N3CCC(CN4CCN(C(=O)CCCCNC(=O)COc5cccc6c5CN(C5CCC(=O)NC5=O)C6=O)CC4)(NC(=O)c4cc(F)ccc4F)CC3)nc2)c2c(C#N)cnn2c1 (centres unmarked) [Example 26, N-[1-(5-{3-cyano-6-ethoxypyrazolo[1,5-a]pyridin-4-yl}pyridin-2-yl)-4-({4-[5-(2-{[2-(2,6-dioxopiperidin-3-yl)-1-oxo-2,3-dihydro-1H-isoindol-4-yl]oxy}acetamido)pentanoyl]piperazin-1-yl}methyl)piperidin-4-yl]-2,5-difluorobenzamide]
60 to 90	100 to 2000	CCOc1cc(-c2ccc(N3CCC(CN4CCN(C(=O)CCN5CCC(c6ccc7c(c6)C(=O)N(C6CCC(=O)NC6=O)C7)CC5)CC4)CC3)nc2)c2c(C#N)cnn2c1 (centres unmarked) [Example 126, 4-[6-(4-{[4-(3-{4-[2-(2,6-dioxopiperidin-3-yl)-3-oxo-2,3-dihydro-1H-isoindol-5-yl]piperidin-1-yl}propanoyl)piperazin-1-yl]methyl}piperidin-1-yl)pyridin-3-yl]-6-ethoxypyrazolo[1,5-a]pyridine-3-carbonitrile]
> 90	2 to 10	CCOc1cc(-c2ccc(N3CCC(CN4CCN(C(=O)CCCCCCNc5ccc(C6CCC(=O)NC6=O)cc5)CC4)(NC(=O)c4cc(F)ccc4F)CC3)nc2)c2c(C#N)cnn2c1 (centres unmarked) [Example 20, N-[1-(5-{3-cyano-6-ethoxypyrazolo[1,5-a]pyridin-4-yl}pyridin-2-yl)-4-{[4-(7-{[4-(2,6-dioxopiperidin-3-yl)phenyl]amino}heptanoyl)piperazin-1-yl]methyl}piperidin-4-yl]-2,5-difluorobenzamide]
> 90	2 to 10	CCOc1cc(-c2ccc(N3CCC(CN4CCN(C(=O)CN5CCN(c6ccc7c(c6)CN(C6CCC(=O)NC6=O)C7=O)CC5)CC4)(NC(=O)c4cc(F)ccc4F)CC3)nc2)c2c(C#N)cnn2c1 (centres unmarked) [Example 6, N-(1-(5-(3-cyano-6-ethoxypyrazolo[1,5-a]pyridin-4-yl)pyridin-2-yl)-4-((4-(2-(4-(2-(2,6-dioxopiperidin-3-yl)-1-oxoisoindolin-5-yl)piperazin-1-yl)acetyl)piperazin-1-yl)methyl)piperidin-4-yl)-2,5-difluorobenzamide]
> 90	< 2	CCOc1cc(-c2ccc(N3CCC(CN(C(=O)CCCCCCN4CCN(c5ccc6c(c5)CN(C5CCC(=O)NC5=O)C6=O)CC4)C(C)C)(NC(=O)c4cc(F)ccc4F)CC3)nc2)c2c(C#N)cnn2c1 (centres unmarked) [Example 165, N-[1-(5-{3-cyano-6-ethoxypyrazolo[1,5-a]pyridin-4-yl}pyridin-2-yl)-4-[(7-{4-[2-(2,6-dioxopiperidin-3-yl)-1-oxo-2,3-dihydro-1H-isoindol-5-yl]piperazin-1-yl}-N-(propan-2-yl)heptanamido)methyl]piperidin-4-yl]-2,5-difluorobenzamide]
60 to 90	100 to 2000	CCOc1cc(-c2ccc(N3CCC(Cc4ccccc4)(NC(=O)CN4CCC(CN5CCC(c6ccc7c(c6)C(=O)N(C6CCC(=O)NC6=O)C7)CC5)CC4)CC3)nc2)c2c(C#N)cnn2c1 (centres unmarked) [Example 57, N-[4-benzyl-1-[5-(3-cyano-6-ethoxy-pyrazolo[1,5-a]pyridin-4-yl)-2-pyridyl]-4-piperidyl]-2-[4-[[4-[2-(2,6-dioxo-3-piperidyl)-3-oxo-isoindolin-5-yl]-1-piperidyl]methyl]-1-piperidyl]acetamide]
> 90	2 to 10	CCOc1cc(-c2ccc(N3CCC(CN(C(=O)CCCCN4CCN(c5ccc6c(c5)CN(C5CCC(=O)NC5=O)C6=O)CC4)C(C)C)(NC(=O)c4cc(F)ccc4F)CC3)nc2)c2c(C#N)cnn2c1 (centres unmarked) [Example 164, N-[1-(5-{3-cyano-6-ethoxypyrazolo[1,5-a]pyridin-4-yl}pyridin-2-yl)-4-[(5-{4-[2-(2,6-dioxopiperidin-3-yl)-1-oxo-2,3-dihydro-1H-isoindol-5-yl]piperazin-1-yl}-N-(propan-2-yl)pentanamido)methyl]piperidin-4-yl]-2,5-difluorobenzamide]
60 to 90	100 to 2000	CCOc1cc(-c2ccc(N3CCC(C)(CN4CCN(C(=O)CCCCCCN5CCN(c6ccc7c(c6)CN(C6CCC(=O)NC6=O)C7=O)CC5)CC4)CC3)nc2)c2c(C#N)cnn2c1 (centres unmarked) [Example 128, 4-[6-(4-{[4-(7-{4-[2-(2,6-dioxopiperidin-3-yl)-1-oxo-2,3-dihydro-1H-isoindol-5-yl]piperazin-1-yl}heptanoyl)piperazin-1-yl]methyl}-4-methylpiperidin-1-yl)pyridin-3-yl]-6-ethoxypyrazolo[1,5-a]pyridine-3-carbonitrile]
60 to 90	2 to 10	CCOc1cc(-c2ccc(N3CCC(CN(C(=O)CCN4CCN(c5ccc6c(c5)C(=O)N(C5CCC(=O)NC5=O)C6)CC4)C(C)C)(NC(=O)c4cc(F)ccc4F)CC3)nc2)c2c(C#N)cnn2c1 (centres unmarked) [Example 167, N-[1-(5-{3-cyano-6-ethoxypyrazolo[1,5-a]pyridin-4-yl}pyridin-2-yl)-4-[(3-{4-[2-(2,6-dioxopiperidin-3-yl)-3-oxo-2,3-dihydro-1H-isoindol-5-yl]piperazin-1-yl}-N-(propan-2-yl)propanamido)methyl]piperidin-4-yl]-2,5-difluorobenzamide]
> 90	10 to 100	CCOc1cc(-c2ccc(N3CCC(CN4CCN(C(=O)CCCCCCCCCCCCNC(=O)COc5cccc6c5CN(C5CCC(=O)NC5=O)C6=O)CC4)(NC(=O)c4cc(F)ccc4F)CC3)nc2)c2c(C#N)cnn2c1 (centres unmarked) [Example 29, N-[1-(5-{3-cyano-6-ethoxypyrazolo[1,5-a]pyridin-4-yl}pyridin-2-yl)-4-({4-[13-(2-{[2-(2,6-dioxopiperidin-3-yl)-1-oxo-2,3-dihydro-1H-isoindol-4-yl]oxy}acetamido)tridecanoyl]piperazin-1-yl}methyl)piperidin-4-yl]-2,5-difluorobenzamide]
> 90	< 2	CCOc1cc(-c2ccc(N3CCC(CN4CCN(C(=O)CCCN5CCN(c6ccc7c(N8CCC(=O)NC8=O)nn(C)c7c6)CC5)CC4)(NC(=O)c4cc(F)ccc4F)CC3)nc2)c2c(C#N)cnn2c1 [Example 43, N-(1-(5-(3-cyano-6-ethoxypyrazolo[1,5-a]pyridin-4-yl)pyridin-2-yl)-4-((4-(4-(4-(3-(2,4-dioxotetrahydropyrimidin-1(2H)-yl)-1-methyl-1H-indazol-6-yl)piperazin-1-yl)butanoyl)piperazin-1-yl)methyl)piperidin-4-yl)-2,5-difluorobenzamide]
